# Measurements reported in publication PMC13316043, “Structural basis of NSD2 degradation via targeted recruitment of SCF-FBXO22” (Nature Communications, 2026).
# Assays:
# [1] = system: BACH1; experiment: Western blot of BACH1 in HEK293T cells; type: cell-based, human
# Experimental: (§1) HEK293T and U2OS were obtained from ATCC and cultured in high-glucose-containing Dulbecco’s Modified Eagle’s Medium (DMEM; Gibco; cat. #11995) supplemented with 10% fetal bovine serum (VWR) and 1% penicillin/streptomycin (Gibco). Cells were treated with either UNC10415667, UNC12149, UNC12567, hemin (Sigma; cat. #H9039), or DMSO control for the indicated times and analyzed by western blot using standard procedures. Briefly, cells were lysed on ice for 15 min in NETN lysis buffer (20 mM Tris pH 8.0, 100 mM NaCl, 0.5 mM EDTA, 0.5% NP40) supplemented with 10 µg/mL aprotinin, 10 µg/mL leupeptin, 10 µg/mL pepstatin A, 1 mM sodium orthovanadate, 1 mM sodium fluoride, and 1 mM AEBSF (4-[two aminoethyl] benzenesulfonyl fluoride). Cell lysates were centrifuged at 20,000×g in a benchtop microcentrifuge at 4 °C for 10 min. Protein concentration was determined by Bradford assay (Bio-Rad; cat. #5000006). Protein concentration was normalized using Laemmli buffer. Samples were heated for 5 min at 95°C in a dry water-bath. Samples were separated on TGX stain free gels (Bio-Rad) transferred to nitrocellulose membrane and blocked in 5% non-fat dry milk (Biorad; cat. #1706404) diluted in 1x TBS-T (137 mM NaCl, 2.7 mM KCl, 25 mM Tris pH 7.6, 1% Tween-20). Primary antibody incubations (Anti-NSD2 (Abcam; Cat# ab75359; Lot# 1093214-1; 1:1000 dilution), Anti-BACH1 (Fortis Life Sciences; Cat# A303-805A; Lot# 1; 1:1000 dilution), and Anti-GAPDH (Santa Cruz Biotechnology; Cat# sc-47724; Lot# C1023; 1:1000 dilution)) were performed overnight at 4 °C. Secondary antibodies (Peroxidase AffiniPure Goat Anti-Rabbit IgG (H + L) (Jackson Immuno; Cat# 111-035-003; 1:5000 dilution) and Peroxidase AffiniPure Goat Anti-Mouse IgG (H + L) (Jackson Immuno; Cat# 115-035-003; 1:5000 dilution)) were incubated for 1 h at room temperature. Blots were developed by chemiluminescence using Pierce ECL (Thermo Fisher Scientific; cat. #32106).
# [2] = molecular target: T1, *NSD2 PWWP1 ubiquitination by SCF^FBXO22 (Homo sapiens, UniProt O96028+Q8NEZ5); experiment: Ubiquitination assay using purified components; type: biochemical; settings: compound at 0.5 µM, fluorescent SDS-PAGE
# T1 construct: fluorescently labeled NSD2-PWWP1 (*NSD2-PWWP1); the FIST domain of FBXO22 rather than full-length FBXO22 that is used in the ubiquitination; 6xHis (N, cleaved yes); GST (cleaved yes); made in house; host or cells: SKP1-FBXO22: Trichoplusia ni insect cells; NSD2 PWWP1 and NEDD8: E. coli BL21(DE3)-CodonPlus RIL
# Experimental: Ubiquitination assays were performed by mixing 2 separate solutions. First, SKP1-FBXO22, fluorescently labeled NSD2-PWWP1 (*NSD2-PWWP1), and compounds, unless otherwise indicated, were pre-incubated for 15 min on ice. Second, UBA1, UBE2R2, UBE2D2 or UBE2L3 and ARIH1, NEDD8 ~ CUL1-RBX1, MgATP, and reaction buffer (20 mM HEPES pH 8, 200 mM NaCl, 0.5 mg/mL bovine serum albumin (BSA)) were combined on ice to generate a master mix. A standard volume of master mix was added to each reaction tube, and Ub was added to initiate the ubiquitination reaction containing 100µM Ub, 1µM SKP1-FBXO22, 0.5µM *NSD2 PWWP1, 0.5µM compound, 0.1µM UBA1, 1µM UBE2R2, 1µM UBE2D2 or 1µM UBE2L3, and 1µM ARIH1, 1µM NEDD8~CUL1-RBX1, and 5mM MgATP in reaction buffer. Ubiquitination assays comparing *NSD2 PWWP1 mutants were performed similarly, except that SKP1-FBXO22, *NSD2 PWWP1 mutants, and compounds were not incubated separately prior to the start of the reaction. The reactions proceeded at room temperature for 15 min until they were quenched by adding SDS Loading Buffer. The ubiquitinated *NSD2 PWWP1 was visualized by subjecting the reactions to SDS-PAGE and imaging using the Amersham Typhoon.
# [3] = system: NSD2 and other known FBXO22 substrates; settings: prior work; cited from earlier work
# [4] = molecular target: T2, NSD2 (long and short forms) (Homo sapiens, UniProt O96028); experiment: Western blot of NSD2 in HEK293T cells; type: cell-based; settings: 10 µM, 6 hrs, vs DMSO
# T2 sequence (O96028 211-350 limits assumed): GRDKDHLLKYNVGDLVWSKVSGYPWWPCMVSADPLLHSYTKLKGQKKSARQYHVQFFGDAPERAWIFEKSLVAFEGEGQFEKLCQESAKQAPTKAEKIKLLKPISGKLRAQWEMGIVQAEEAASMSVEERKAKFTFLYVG
# Experimental: as §1
# [5] = system: FBXO22-NSD2 PWWP1 ternary complex; experiment: Size-exclusion chromatography to monitor ternary complex formation; type: binding, human
# Experimental: Formation of the SCF^FBXO22-UNC10088-NSD2 PWWP1 and SCF^FBXO22-UNC10415667-NSD2 PWWP1 ternary complexes was performed by incubating SKP1-FBXO22, CUL1-RBX1, NSD2 PWWP1, and UNC10088 or UNC10415667 at a 1:1:1:1 molar ratio for 4 h on ice. The SCF^FBXO22-UNC10088-NSD2 PWWP1-BACH1 BTB ternary complex was formed by incubating SKP1-FBXO22, CUL1-RBX1, NSD2 PWWP1, UNC10088, and BACH1 BTB at a 1:1:1:1:1.5 molar ratio for 1 h on ice. The incubated sample was loaded onto a Superdex 200 Increase SD200 column (Cytiva), equilibrated with 20 mM HEPES pH 8, 200 mM NaCl, 1 mM DTT, for size-exclusion chromatography, and fractions containing all subunits of the SCF^FBXO22-Degrader-NSD2 PWWP1 complex were pooled and concentrated. The SCF^FBXO22-UNC10088-NSD2 PWWP1, SCF^FBXO22-UNC10415667-NSD2 PWWP1, and SCF^FBXO22-UNC10088-NSD2 PWWP1-BACH1 BTB complexes were concentrated to 33 µM, 10.9 µM, and 4.1 µM, respectively, and flash frozen. […] In contrast, only the PWWP1 and BTB domains of NSD2 and BACH1, respectively, were used.
# FBXO22 WT and variants were incubated on ice with NSD2 PWWP1 and either UNC10088 or UNC10415667 at 5 µM. After 1 h, the samples were centrifuged at 16,060 x g for 10 min at 4 °C. Each sample was examined for C326- and compound-dependent complex formation by comparing the SEC chromatograms and Coomassie-stained SDS-PAGE gels. […] These experiments were performed using a Superdex 200 Increase SD200 column (Cytiva) and 20 mM HEPES pH 8, 200 mM NaCl, 1 mM DTT.
# [6] = molecular target: T3, NSD2 (U2OS NSD2-HiBiT cells) (Homo sapiens, UniProt O96028); experiment: NSD2 HiBiT degradation assay; type: cell-based; settings: U2OS NSD2-HiBit cells, 1 µM, 6 h
# T3 construct: RNPs were introduced into U2OS cells by electroporation; endogenous in cells; host or cells: U2OS NSD2-HiBiT clone P112 (CRISPR knock-in)
# T3 sequence (O96028 1-1365): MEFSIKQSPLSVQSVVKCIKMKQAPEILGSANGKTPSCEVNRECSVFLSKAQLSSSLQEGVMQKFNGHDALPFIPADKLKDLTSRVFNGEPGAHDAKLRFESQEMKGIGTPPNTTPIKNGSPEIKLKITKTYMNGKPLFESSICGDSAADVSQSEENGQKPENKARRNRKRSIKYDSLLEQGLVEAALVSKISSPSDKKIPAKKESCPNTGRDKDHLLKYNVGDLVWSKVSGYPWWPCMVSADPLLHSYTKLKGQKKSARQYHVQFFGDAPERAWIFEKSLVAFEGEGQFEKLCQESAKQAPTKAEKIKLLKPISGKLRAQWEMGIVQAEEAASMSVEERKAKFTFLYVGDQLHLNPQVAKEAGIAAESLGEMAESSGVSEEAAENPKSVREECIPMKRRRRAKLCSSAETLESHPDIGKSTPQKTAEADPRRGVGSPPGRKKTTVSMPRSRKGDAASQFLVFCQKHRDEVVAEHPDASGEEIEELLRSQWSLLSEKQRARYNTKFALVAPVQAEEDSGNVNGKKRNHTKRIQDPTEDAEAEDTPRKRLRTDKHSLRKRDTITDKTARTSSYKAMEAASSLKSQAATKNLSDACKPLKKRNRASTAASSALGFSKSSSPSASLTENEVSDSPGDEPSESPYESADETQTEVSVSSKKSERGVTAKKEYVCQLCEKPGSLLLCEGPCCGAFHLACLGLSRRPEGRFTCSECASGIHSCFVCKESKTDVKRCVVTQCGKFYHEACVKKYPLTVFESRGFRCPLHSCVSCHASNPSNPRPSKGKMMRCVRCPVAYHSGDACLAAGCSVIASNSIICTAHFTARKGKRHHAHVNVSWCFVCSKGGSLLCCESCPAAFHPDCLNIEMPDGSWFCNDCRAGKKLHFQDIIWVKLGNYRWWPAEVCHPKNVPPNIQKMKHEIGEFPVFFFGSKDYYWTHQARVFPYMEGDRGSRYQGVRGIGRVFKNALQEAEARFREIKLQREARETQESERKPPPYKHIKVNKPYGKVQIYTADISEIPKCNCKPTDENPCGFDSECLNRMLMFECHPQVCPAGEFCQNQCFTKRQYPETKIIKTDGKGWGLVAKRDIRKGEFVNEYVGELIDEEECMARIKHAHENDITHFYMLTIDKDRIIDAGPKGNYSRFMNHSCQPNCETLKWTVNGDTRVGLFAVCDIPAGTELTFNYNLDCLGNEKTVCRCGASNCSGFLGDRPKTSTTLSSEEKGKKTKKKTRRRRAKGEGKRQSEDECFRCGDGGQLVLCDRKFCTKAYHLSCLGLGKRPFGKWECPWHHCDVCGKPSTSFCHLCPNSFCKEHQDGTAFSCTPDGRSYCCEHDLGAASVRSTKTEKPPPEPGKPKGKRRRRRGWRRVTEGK
# Description: The NSD2 genomic sequence was obtained from the UCSC genome browser and used to design sgRNAs to introduce HiBiT tags at either the 5’ or 3’ ends of the gene. sgRNA were assembled into RNPs using TrueCut Cas9 Protein v2 (Invitrogen, Cat#A36497), an sgRNA crRNA:tracrRNA duplex (below; IDT) and ssODN (below; IDT). RNPs were introduced into U2OS cells by electroporation using a Neon XT electroporation system (1750 V, 10 ms, 3 pulses) in R-buffer, using Thermo Fisher Neon transfection kit (Cat# MPK1025K) and according to the manufacturer's protocol. After plating for recovery for four days, single cell clones limited dilution cloning. Single cell clones that grew out were identified as containing integrated HiBiT tags on NSD2 by performing HiBiT assays using HiBiT lytic assay (Promega: N3040) and read on a plate reader. Clones were further confirmed by PCR analysis.
# To test compounds for NSD2 degradation, a compound plate was prepared by diluting compounds in DMSO into cell media in a 384-deep-well plate (Revvity). Then, 6 µL of the diluted compounds were transferred into the well of the 384-well assay plate (Corning). 24 µL of the NSD2 HiBiT U2OS P112 cells or parental U2OS cells (3000 cells/well) were added to each well to make a final volume of 30 µL with a 0.1% final DMSO concentration. For multiple time points, multiple assay plates were made and incubated in the incubator at 37 °C in 5% CO2 for 3/6/12/24/48 hrs. 10 min before the reading, the assay plate and the Nano-Glo HiBiT Lytic Detection System (Promega) were brought to room temperature. The HiBiT lytic reagent master mix was prepared according to the product instructions and added to the assay plate. The plate was then incubated on an orbital shaker for 5 min at room temperature, equilibrated for 10 min, and then read using the GloMax luminometer (Promega) for luminescence detection. Compound treatment was normalized to the DMSO control with the background subtraction using the parental U2OS cell line as the background control, plated alongside the HiBiT U2OS P112 cells. The data and graphs were then analyzed and generated using GraphPad Prism (v 10.4.1). DC50 and Dmax were calculated by fitting the data to a non-linear regression curve.
# T1 sequence (Q8NEZ5 whole entry, one chain of several, the tested form may be a part): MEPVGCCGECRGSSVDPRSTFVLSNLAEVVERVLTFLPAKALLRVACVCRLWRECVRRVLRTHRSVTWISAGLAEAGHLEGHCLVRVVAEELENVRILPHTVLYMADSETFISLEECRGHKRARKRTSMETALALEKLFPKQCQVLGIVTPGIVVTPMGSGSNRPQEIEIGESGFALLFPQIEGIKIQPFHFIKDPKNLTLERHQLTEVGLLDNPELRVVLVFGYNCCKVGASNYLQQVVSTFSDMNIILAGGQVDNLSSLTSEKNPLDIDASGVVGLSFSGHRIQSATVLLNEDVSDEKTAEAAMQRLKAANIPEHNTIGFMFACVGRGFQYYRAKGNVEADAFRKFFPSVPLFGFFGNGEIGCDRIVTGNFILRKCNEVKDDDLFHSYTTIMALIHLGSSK
compound,measurement,setting,value
Hemin [reference compound],BACH1 degradation by immunoblot,[1]; 20 µM Hemin,degradation was promoted
NCCCCCC(=O)N1CCc2cc(NC(=O)c3ccc(CN(C(=O)c4ccc5c(c4)OCC(=O)N5)C4CC4)cc3)ccc2C1 [UNC8732],SCF^FBXO22-dependent ubiquitination of *NSD2 PWWP1,[2],no effect
same,selectivity of degradation in global proteomics,[3],specifically degrades NSD2
CC(C)N(Cc1ccc(C(=O)Nc2ccc3c(c2)CCN(C(=O)c2ccc(C=O)cc2)C3)cc1)C(=O)c1ccc2c(c1)OCC(=O)N2 [UNC12567],NSD2 levels by immunoblot,[4],unchanged
same,BACH1 levels by immunoblot,"[1]; 10 µM, 6 hrs",unchanged
same,ternary complex formation between FBXO22 and NSD2 PWWP1 by SEC,[5],did not support ternary complex formation
O=Cc1ccc(CC(=O)N2CCc3cc(NC(=O)c4ccc(CN(C(=O)c5ccc6c(c5)OCC(=O)N6)C5CC5)cc4)ccc3C2)cc1 [UNC10415668],reduction of NSD2 levels,[6],more modest effect
same,SCF^FBXO22-dependent ubiquitination of *NSD2 PWWP1,[2],able to induce polyubiquitination
